Patent publication US12344643B2, “Compositions and methods for inhibition of FOXP3” (The University of Chicago, priority 2016, dated 2025)
Ends that are not written are not given here.

Tests used:
[1] = target: T1, recombinant LZCC protein (dimerized FOXP3) (Mus musculus, UniProt Q99JB6); test: Chemical crosslinking (BS3 or DSS) of recombinant LZCC with SAH-FOXP3 peptides; type: biochemical; conditions: 2 hours room temperature, 1 mM BS3 or DSS
T1 construct: the LZCC portion of FOXP3 (FOXP3 S189-K276); made in house
T1 sequence (Q99JB6 189-276): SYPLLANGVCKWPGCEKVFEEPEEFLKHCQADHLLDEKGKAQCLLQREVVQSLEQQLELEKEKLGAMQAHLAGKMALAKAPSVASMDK
Procedure: FIG. 8A-B. Chemical Crosslinking. SAH-FOXP3 peptides incubated with recombinant LZCC protein for 2 hours at room temperature in 1×PBS. 1 mM of the chemical crosslinker BS3 or DSS was added to each tube for 30 mins at room temperature. Samples were denatured and then separated by electrophoresis on a NuPage SDS 10/a Bis-Tris gel following the manufacturer's protocol (Invitrogen). Protein was imaged after staining the gel with coomassie on the Odyssey Imager. […] In some cases, SAH peptide crosslinks with monomeric FOXP3 alone

DNA probe = test: EMSA control, peptide alone with DNA probe (non-specific binding); conditions: 50 μM peptide
Procedure: FIG. 9A-C. Electrophoretic mobility shift assays (EMSA). (A) SAHs block FOXP3 binding to cognate DNA; a comparison of stapled and unstapled peptides. EMSA with FOXP3ΔN incubated with increasing concentrations of different SAH-FOXP3 are shown. Labeled probe containing consensus sequence (A′GT25) for FOXP3 was incubated at room temperature for 15 mins with recombinant FOXP3ΔN and increasing concentrations of SAH peptide [3 μM to 25 μM]. The last lane in each set is 25 μM of peptide alone with DNA probe. […] IRDye700 labeled probe containing consensus sequence for NFAT was incubated at room temperature for 15 mins with 100 pmole recombinant NFAT-DBD and peptide or DMSO using the Odyssey Infrared EMSA kit per manufacturer's protocol (Li-Cor). Reactions were then separated by electrophoresis on a 10% TBE gel and imaged using an Odyssey Imager (Li-Cor).
To exclude non-specific binding to the negatively charged DNA probe, a liability of using charged peptides in EMSAs, SAH-FOXP3DDs were incubated with each probe at up to twice the highest concentration used. […] Next, SAH-FOXP3DDs were incubated with recombinant NFAT (NFAT DBDW400-W680) and the Il-2 reporter oligonucleotide ARRE2 element as a further test of specificity. SAH-FOXP3DDs were unable to inhibit NFAT:DNA binding, further validating on-target specificity of the peptides.

FOXP3-DNA binding = test: EMSA with FOXP3 reticulocyte lysate (IVTT) and IRDye700 DNA probe, unstapled peptides; type: biochemical; conditions: peptides 50-200 μM, A′A1A2 probe
Procedure: FIG. 5A-C. Unstapled FOXP3 peptides are able to alter FOXP3-DNA binding at high concentrations. Preparation of FOXP3 proteins through In Vitro Transcription and Translation (IVTT) reticulocyte lysate: T7 DNA vectors (1 μg/25 μL) were incubated at 30° C. for 1.5 hr in reticulocyte lysate with T7 polymerase, amino acids and RNAsin per the manufacturer's protocol (TnT Coupled Reticulocyte Lysate System, Promega). IRDye700 labeled probe containing consensus sequence (A′A1A2; a DNA sequence previously published to bind FOXP3) for FOXP3 was incubated at room temperature for 15 mins with 2 μL FOXP3 reticulocyte lysate, in the presence of peptides (50-200 μM) using the Odyssey Infrared EMSA kit per manufacturer's protocol (Li-Cor). Reactions were then separated by electrophoresis on a 10% TBE gel and imaged using an Odyssey Imager (Li-Cor).

FOXP3:NFAT1 = test: IL-2 promoter ARRE2 luciferase reporter, FOXP3 repression of NFAT1:AP1 transcription; type: cell-based, human; conditions: HEK cells
Procedure: FIG. 2A-E. Design, biochemical characterization, and functional testing of SAH-FOXP3NFATs. (A) Design strategy for SAHs targeting the FOXP3:NFAT1 dimerization interface. (B) CD showing that i(i+4) and i(i+7) stapled SAH-FOXP3NFATs and their point mutant controls are helical in solution. […] (C&D) Dose dependent inhibition of FOXP3-mediated NFAT repression with 2.5 ng (D) and 10 ng (E) FOXP3 DNA. Point mutant controls have no effect thus confirming specificity of action.
Experiments were conducted during development of embodiments herein to design stabilized α-helices of the FOXP3:NFAT1 interface (SAH-FOXP3NFAT). Using a similar approach as above, stapled peptides based on a FOXP3 α-helix, which is responsible for NFAT1 binding (FIG. 2A), were designed. Non-natural amino acids were inserted in either the i,i+4 (SAHFOXP3NFAT(i,i+4)) or i,i+7(SAHFOXP3NFAT(i,i+7)) positions. Hydrocarbon stapling of the FOXP3NFAT peptides and point mutants similarly stabilizes their helicity (FIG. 2B). The peptides were tested for inhibition of FOXP3:NFAT1 binding. Co-expression of increasing amounts of FOXP3 DNA with constitutively active NFAT1 dose dependently represses NFAT1: AP1 transcriptional activity at an IL-2 promoter ARRE2 luciferase reporter element in transfected human embryonic kidney (HEK) cells (FIG. 2C). […] Confirming specificity of action, neither point mutant control SAH had any effect (FIG. 2E). […] Possibilities include differences in cellular penetrance, binding efficiency, or intracellular trafficking between the two SAHs.

Tregs [2] = test: Flow cytometry of protein expression in treated Tregs; type: cell-based, mouse (C57BL/6 FOXP3IRES-GFP); conditions: dose titration
Procedure: (§1) FIG. 12A-B. SAH-FOXP3DD peptides are able to alter cellular expression (protein and mRNA) of FOXP3 target genes. Conventional T cells (CD4+ CD25−) and regulatory T cells (CD25+ GFP+) were isolated from CD4+ cells enriched from spleen and draining lymph nodes of FOXP3-IRES-GFP. Tregs were treated at 1000 cells per μL with peptides in OptiMem for 2 hours before being quenched with completed advanced DMEM and then stimulated with CD3/CD28 beads. Gene expression was determined using qRT-PCR 4 hours after stimulation. Membrane (live cell) or internal (fixed cell) expression of proteins was determined using flow cytometry 16 hrs after stimulation.
(§2) Tregs and Tcons were stimulated from C57BL/6 FOXP3IRES-GFP with IL-2 and CD3/CD28 microbeads for seven days and treated them with a dose titration of SAH-FOXP3DD10, or unstapled control, and measured membrane expression of CD127 (IL7Ra). Tregs and Tcons normally downregulate CD127 mRNA expression following seven days of stimulation.

[3] = tested on: regulatory T cells (Tregs); test: In vitro Treg suppression assay (Tcon proliferation, flow cytometry); type: cell-based, mouse (C57BL/6 FOXP3IRES-GFP)
Tregs [4] = test: Quantitative PCR of mRNA in treated Tregs; type: cell-based, mouse (C57BL/6 FOXP3IRES-GFP); conditions: naïve Tregs with IL-2 and CD3/CD28 microbeads
Procedure: as §1, §2

[5] = target: T2, recombinant FOXP3 leucine zipper coiled-coiled (LZCC) domain (Mus musculus, UniProt Q99JB6); test: Fluorescence polarization assay, FITC-peptide binding to LZCC; conditions: 50 nM FITC-peptide, 1×PBS pH 8
T2 construct: the LZCC portion of FOXP3 (FOXP3 S189-K276); made in house
T2 sequence (Q99JB6 189-276): T1 sequence (Q99JB6 189-276)
Procedure: FIG. 7A-D. Fluorescence polarization assay to determine SAH-FOXP3 binding to recombinant FOXP3 leucine zipper coiled-coiled (LZCC) domain. (A) Serially diluted recombinant LZCC was incubated with 50 nM FITC-peptide in 1×PBS pH 8 for 5-10 mins and then fluorescent polarization was measured using a SpectraMax spectrometer. […] (B—C) Serially diluted recombinant LZCC (A) or FOXP3 ΔN (B) was incubated with 50 nM FITC-peptide in 1×PBS pH 8 for 5-10 mins followed by fluorescent polarization measurement using a SpectraMax spectrometer. (D) Shift of composite binding curves indicate increased affinity for the leucine zipper coiled-coiled (LZCC) domain and FOXP3ΔN.
A library of hydrocarbon stapled peptides were synthesized representing these templates (SAH-FOXP3DDs) that incorporated three different hydrocarbon staple positions along the solvent-exposed face so as to avoid disruption of critical contact points between ‘a’ and ‘d’ residues of the coiled-coil. Non-natural amino acids were inserted at positions i,i+7 so that the hydrocarbon staples face away from the dimerization interface (FIG. 1A). […] Both native and stapled FOXP3DD peptides were α-helical in solution at a wide range of temperatures (20-50° C.) (FIG. 1B). To achieve solubility of the unstapled constructs for CD evaluation, 20% acetonitrile:water solution was used. […]

Substance: F8KHCQADXLLDEKGRAQCLLQREMVQSLEQQLVLEKEKL [SAH7, Ac-/-Am; hFOXP3 (214-253); staple (1215, H222)Z]
- amount of dimerized FOXP3 protein after crosslinking [1]: modest decrease

Substance: HLLDEKGRAQCLLQREMVQSLE8QLVLEKXKLSAMQAHLAG [SAH3, Ac-/-Am; hFOXP3 (222-262); staple (Q244, E251)C]
- binding of peptide to DNA probe (DNA probe): minimal binding

Substance: KGRAQCLLQREMVQSLE8QLVLEKXKLSAMQAH [SAH-FOXP3DD4, Ac-/-Am; hFOXP3 (227-259); staple (Q244, E251)C]
- binding of peptide to DNA probe (DNA probe): minimal binding

Substance: LLDEKGRAQCL8QREMVQXLEQQLVLEKEK [SAH9, Ac-/-Am; hFOXP3 (223-252); staple (L234, S241)B]
- amount of dimerized FOXP3 protein after crosslinking [1]: modest decrease

Substance: LLDEKGRAQCLLQREMVQSLEQQLVLEKEK (LLDEKGRAQCLLQREMVQSLEQQLVLEKEK-NH2) [223-252, free N-term/-Am; hFOXP3 (223-252); unstapled; B4 has the same range]
- dissociation of FOXP3 from DNA (EMSA) (FOXP3-DNA binding): dissociate FOXP3 from DNA

Substance: QRTXNEIXHWFTRNFAFF [SAH-FOXP3NFAT(i,i+4), β-Ala/Ac; i,i+4 stapled FOXP3/NFAT peptide]
- inhibition of FOXP3-mediated repression of NFAT1:AP1 luciferase activity (FOXP3:NFAT1; 2.5 ng FOXP3 DNA (low dose)): inhibited this FOXP3-mediated repression
- inhibition of FOXP3-mediated repression of NFAT1:AP1 luciferase activity (FOXP3:NFAT1; 2.5 ng FOXP3 DNA (low dose), listed as FOXP3NFAT(i,i+4)): fully inhibited
- inhibition of FOXP3-mediated repression of NFAT1:AP1 luciferase activity (FOXP3:NFAT1; 10 ng FOXP3 DNA (excess)): inhibited this FOXP3-mediated repression
- inhibition of FOXP3-mediated repression of NFAT1:AP1 luciferase activity (FOXP3:NFAT1; 10 ng FOXP3 DNA (excess), listed as FOXP3NFAT(i,i+4)): less able to inhibit

Substance: QRTXNEIYHWXTRNFAFF [SAH-FOXP3NFAT(i,i+7), β-Ala/Ac; i,i+7 stapled FOXP3/NFAT peptide]
- inhibition of FOXP3-mediated repression of NFAT1:AP1 luciferase activity (FOXP3:NFAT1; 2.5 ng FOXP3 DNA (low dose)): inhibited this FOXP3-mediated repression
- inhibition of FOXP3-mediated repression of NFAT1:AP1 luciferase activity (FOXP3:NFAT1; 2.5 ng FOXP3 DNA (low dose), listed as FOXP3NFAT(I,i+7)): dose-responsively inhibited
- inhibition of FOXP3-mediated repression of NFAT1:AP1 luciferase activity (FOXP3:NFAT1; 10 ng FOXP3 DNA (excess)): inhibited this FOXP3-mediated repression
- inhibition of FOXP3-mediated repression of NFAT1:AP1 luciferase activity (FOXP3:NFAT1; 10 ng FOXP3 DNA (excess), listed as FOXP3NFAT(I,i+7)): dose-responsively inhibited

Substance: RAQCLLQREMVQSLE8QLVLEKXKLSAMQAH [SAH-FOXP3DD10, Ac-/-Am; hFOXP3 (229-259); staple (Q244, E251)C]
- binding of peptide to DNA probe (DNA probe): minimal binding
- expression of CD44 (Tregs [2]; Tregs stimulated seven days): dose dependent decrease
- expression of CD69 (Tregs [2]; Tregs stimulated seven days): dose dependent decrease
- membrane expression of CD127 (IL7Ra) (Tregs [2]; Tregs stimulated with IL-2 and CD3/CD28 microbeads for seven days): dose dependent increase
- degree of Treg inhibition ([3]; in vitro expanded Tregs): lower, but still present
- ability of treated Tregs to inhibit Tcon proliferation ([3]; naïve Tregs pretreated for 2 hours): unable to inhibit the proliferation
- FOXP3 mRNA expression (Tregs [4]): correlative increase
- IL-2 mRNA expression (Tregs [4]): correlative increase

Substance: RAQCLLQREMVQSLEQQLVLEKEKLSAMQAH (Ac-RAQCLLQREMVQSLEQQLVLEKEKLSAMQAH-NH2) [229-259, Ac-/-Am; hFOXP3 (229-259); unstapled]
- dissociation of FOXP3 from DNA (EMSA) (FOXP3-DNA binding): dissociate FOXP3 from DNA

Substance: SGSGSRAQCLLQREMVQSLEQQLVLEKEK (Ac-SGSGSRAQCLLQREMVQSLEQQLVLEKEK-NH2) [B2V3, Ac-/-Am; SGSGS hFOXP3 (229-252); unstapled native peptide]
- binding to recombinant LZCC, in words [5]: much lower affinity

Substance: SGSRAQCLLQREMVQSLEQQLVLEKEK (Ac-SGSRAQCLLQREMVQSLEQQLVLEKEK-NH2) [B2V2, Ac-/-Am; SGS hFOXP3 (229-252); unstapled native peptide]
- binding to recombinant LZCC, in words [5]: much lower affinity
